Source: US12421205B2, “GLP-1 receptor agonist” (HYUNDAI PHARM CO., LTD., priority 2019, dated 2025)

Tests used:
hERG = target: T1, hERG (Homo sapiens, UniProt Q12809); test: hERG inhibition test (Predictor hERG Fluorescence Polarization assay kit); format: binding; settings: probe kit Tracer (fluorescent hERG ligand), hERG % inhibition at 10 uM, relative to E-4031 and solvent control
T1 construct: purchased Invitrogen PV5365
Procedure: To measure the hERG (Human ether-a-go-go-related gene) channel inhibition rate of the compound according to the present invention, the following test was performed using a Predictor hERG Fluorescence Polarization assay kit (Invitrogen, PV5365).
Specifically, a test substance was dissolved in DMSO to prepare a 50 mM solution. A 4 mM solution was prepared by diluting the 50 mM solution with DMSO in a U bottom 96-well plate (SPL, 34096), and was then diluted 100-fold with a test buffer to prepare a 40 uM (4×) solution. The positive control E-4031 (3 mM) provided in the kit was diluted 25-fold with a test buffer to prepare a 120 uM solution) 5 uL of the diluted test substance solution was dispensed into a 384-well assay plate (corning, 3677). hERG Membrane (2×) and Tracer (4×) provided in the kit were respectively added at 10 uL and 5 uL, and then subjected to the reaction at room temperature for 2.5 hours. After completion of the reaction, fluorescence polarization (mP) was measured with a Multimode Plate Reader (Perkin-Elmer, Envision) (excitation wavelength of 531 nm, and emission wavelength 579 nm). The value of the percent inhibitory activity (% inhibition) at 10 uM of each test substance was calculated by the following equation, and the results are shown in Table 2: (% inhibition)=100−{(mP of the compound according to the present invention−E-4031 mP)/(mP of the solvent control−E-4031 mP)}×100

human GLP-1 receptor = target: T2, human GLP-1 receptor (Homo sapiens, UniProt P43220); test: cAMP activity test (cAMP dynamic HTRF kit) in CHO-K1/GLP-1 receptor-expressing cells; format: cell-based; settings: cAMP activity, CHO-K1/GLP-1 receptor-expressing cells; read-out: EC50
T2 construct: host or cells: CHO-K1
T2 sequence (P43220 24-463): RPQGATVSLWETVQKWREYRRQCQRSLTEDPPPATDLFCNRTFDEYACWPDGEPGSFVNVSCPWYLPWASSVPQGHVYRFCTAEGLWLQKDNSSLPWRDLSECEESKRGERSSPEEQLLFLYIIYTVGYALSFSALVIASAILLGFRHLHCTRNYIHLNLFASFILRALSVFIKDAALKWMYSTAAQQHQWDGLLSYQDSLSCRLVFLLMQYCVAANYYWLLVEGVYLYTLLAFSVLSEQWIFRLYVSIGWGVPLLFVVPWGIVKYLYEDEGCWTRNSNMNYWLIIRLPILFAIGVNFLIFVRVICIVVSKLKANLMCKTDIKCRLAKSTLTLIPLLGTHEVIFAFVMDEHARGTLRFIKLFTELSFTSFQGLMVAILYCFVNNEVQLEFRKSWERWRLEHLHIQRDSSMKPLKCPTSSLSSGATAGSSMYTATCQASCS
Procedure: The next day, the medium was removed, and a 50 uL of HBSS medium containing 0.1% BSA, 0.5 mM IBMX, and 5 mM HEPES was added to each well. […] The cAMP activity was measured according to the manufacturer's instructions using the cAMP dynamic HTRF kit (Cisbio, 62AM4PEC). After incubation, the medium was discarded, and the cells were lysed. cAMP-d2 and anti-cAMP cryptate conjugate were added thereto and reacted for 3 hours. […] Intracellular cAMP competes with cAMP-d2 for anti-cAMP cryptate, and the measured signal of fluorescence resonance energy transfer (FRET) is inversely proportional to intracellular cAMP.

T1 sequence (Q12809 whole entry): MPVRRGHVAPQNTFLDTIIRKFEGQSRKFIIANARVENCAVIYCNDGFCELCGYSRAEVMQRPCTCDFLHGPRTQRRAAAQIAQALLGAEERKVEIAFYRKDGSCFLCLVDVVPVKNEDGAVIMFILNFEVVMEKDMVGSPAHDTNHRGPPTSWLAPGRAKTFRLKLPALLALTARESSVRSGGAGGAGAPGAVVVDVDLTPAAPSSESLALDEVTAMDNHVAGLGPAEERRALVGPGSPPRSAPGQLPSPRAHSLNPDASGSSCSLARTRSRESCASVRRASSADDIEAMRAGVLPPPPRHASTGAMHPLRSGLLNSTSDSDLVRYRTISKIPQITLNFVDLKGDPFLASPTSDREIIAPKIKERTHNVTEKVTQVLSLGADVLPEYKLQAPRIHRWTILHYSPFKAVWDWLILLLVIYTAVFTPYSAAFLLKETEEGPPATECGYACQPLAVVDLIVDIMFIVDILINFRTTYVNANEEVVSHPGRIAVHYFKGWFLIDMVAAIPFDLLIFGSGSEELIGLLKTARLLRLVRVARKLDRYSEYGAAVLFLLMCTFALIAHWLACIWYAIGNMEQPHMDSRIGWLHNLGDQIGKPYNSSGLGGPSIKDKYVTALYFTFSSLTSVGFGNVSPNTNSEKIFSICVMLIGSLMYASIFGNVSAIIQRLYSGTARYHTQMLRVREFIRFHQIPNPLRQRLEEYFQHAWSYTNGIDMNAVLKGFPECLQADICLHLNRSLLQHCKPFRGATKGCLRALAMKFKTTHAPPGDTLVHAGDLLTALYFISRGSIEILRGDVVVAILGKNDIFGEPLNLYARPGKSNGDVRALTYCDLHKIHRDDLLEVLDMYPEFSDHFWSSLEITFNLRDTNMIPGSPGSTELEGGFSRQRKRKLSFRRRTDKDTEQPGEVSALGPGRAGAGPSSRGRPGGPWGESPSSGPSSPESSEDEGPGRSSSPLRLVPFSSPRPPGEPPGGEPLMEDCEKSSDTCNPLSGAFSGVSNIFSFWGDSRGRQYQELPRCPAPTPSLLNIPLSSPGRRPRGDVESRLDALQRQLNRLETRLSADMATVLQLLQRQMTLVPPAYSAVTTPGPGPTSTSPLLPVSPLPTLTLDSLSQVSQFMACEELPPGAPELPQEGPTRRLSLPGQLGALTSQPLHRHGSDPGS

Compound	EC50 (human GLP-1 receptor) [nM]	inhibition at 2.5 h, 10 µM (hERG) [%]
O=C(O)c1ccc2nc(Cc3ccc(-c4cccc(OCc5cccnc5)n4)c(F)c3)n(C[C@@H]3CCO3)c2c1 [Example 129, (S)-2-(3-fluoro-4-(6-(pyridin-3-ylmethoxy)pyridin-2-yl)benzyl)-1-(oxetan-2-ylmethyl)-1H-benzo[d]imidazole-6-carboxylic acid]	490	-6.27
COCCn1c(Cc2c(F)cc(-c3cccc(OCc4ccc(Cl)cc4F)n3)cc2F)nc2ccc(C(=O)O)cc21 [Example 37, 2-(4-(6-(4-chloro-2-fluorobenzyloxy)pyridin-2-yl)-2,6-difluorobenzyl)-1-(2-methoxyethyl)-1H-benzo[d]imidazole-6-carboxylic acid]	13	-10.6
O=C(O)c1ccc2nc(Cc3ccc(-c4ccc(F)c(OCc5ccc(Cl)cc5F)n4)c(F)c3)n(C[C@@H]3CCO3)c2c1 [Example 117, (S)-2-(4-(6-((4-chloro-2-fluorobenzyl)oxy)-5-fluoropyridin-2-yl)-3-fluorobenzyl)-1-(oxetan-2-ylmethyl)-1H-benzo[d]imidazole-6-carboxylic acid]	< 3.2	12.5
COCCn1c(Cc2ccc(-c3cccc(OCc4ccc(Cl)cc4F)c3)cc2)nc2ccc(C(=O)O)cc21 [Example 22, 2-((3′-(4-chloro-2-fluorobenzyloxy)biphenyl-4-yl)methyl)-1-(2-methoxyethyl)-1H-benzo[d]imidazole-6-carboxylic acid]	130	-15.5
O=C(O)c1ccc2nc(Cc3ccc(-c4cccc(OCc5ccc(Cl)cc5F)n4)cc3F)n(C[C@@H]3CCCO3)c2c1 [Example 59, (S)-2-(4-(6-(4-chloro-2-fluorobenzyloxy)pyridin-2-yl)-2-fluorobenzyl)-1-((tetrahydrofuran-2-yl)methyl)-1H-benzo[d]imidazole-6-carboxylic acid]	5.8	-21
COCCn1c(Cc2ccc(-c3cccc(OCc4ccc(Cl)cc4F)c3)c(F)c2)nc2ccc(C(=O)O)cc21 [Example 39, 2-((3′-(4-chloro-2-fluorobenzyloxy)-2-fluorobiphenyl-4-yl)methyl)-1-(2-methoxyethyl)-1H-benzo[d]imidazole-6-carboxylic acid]	250	-12.8
O=C(O)c1ccc2nc(Cc3ccc(-c4cccc(OCc5ccncc5)n4)c(F)c3)n(C[C@@H]3CCO3)c2c1 [Example 128, (S)-2-(3-fluoro-4-(6-(pyridin-4-ylmethoxy)pyridin-2-yl)benzyl)-1-(oxetan-2-ylmethyl)-1H-benzo[d]imidazole-6-carboxylic acid]	260	-6.1
O=C(O)c1ccc2nc(Cc3ccc(-c4cccc(OCc5ccc(Cl)cc5F)c4)c(F)c3)n(Cc3cnco3)c2c1 [Example 33, 2-((3′-(4-chloro-2-fluorobenzyloxy)-2-fluorobiphenyl-4-yl)methyl)-1-(oxazol-5-ylmethyl)-1H-benzo[d]imidazole-6-carboxylic acid]	60	-9.08

The remaining compounds from weak to strong by EC50 (human GLP-1 receptor), led by results:

EC50 (human GLP-1 receptor) [nM]	Compound	inhibition at 2.5 h, 10 µM (hERG) [%]
420	COCCn1c(Cc2ccc(-c3cccc(OCc4ccc(C#N)cc4F)c3)cc2)nc2ccc(C(=O)O)cc21 [Example 21, 2-((3′-(4-cyano-2-fluorobenzyloxy)biphenyl-4-yl)methyl)-1-(2-methoxyethyl)-1H-benzo[d]imidazole-6-carboxylic acid]	-9.94
270	N#Cc1ccc(COc2cccc(-c3ccc(Cc4nc5ccc(C(=O)O)cc5n4Cc4ccco4)cc3)c2)c(F)c1 [Example 27, 2-((3′-(4-cyano-2-fluorobenzyloxy)biphenyl-4-yl)methyl)-1-(furan-2-ylmethyl)-1H-benzo[d]imidazole-6-carboxylic acid]	-4.76
260	N#Cc1ccc(COc2cccc(-c3ccc(Cc4nc5ccc(C(=O)O)cc5n4C[C@H]4CCCO4)c(F)c3)c2)c(F)c1 [Example 46, (R)-2-((3′-(4-cyano-2-fluorobenzyloxy)-3-fluorobiphenyl-4-yl)methyl)-1-((tetrahydrofuran-2-yl)methyl)-1H-benzo[d]imidazole-6-carboxylic acid]	1.04
190	Cc1cccc(COc2cccc(-c3ccc(Cc4nc5ccc(C(=O)O)cc5n4CC4CCCO4)c(F)c3)n2)c1 (centres unmarked) [Example 80, 2-(2-fluoro-4-(6-(3-methylbenzyloxy)pyridin-2-yl)benzyl)-1-((tetrahydrofuran-2-yl)methyl)-1H-benzo[d]imidazole-6-carboxylic acid]	-25.2
110	O=C(O)c1ccc2nc(Cc3ccc(-c4cccc(OCc5ccc(Cl)cc5F)n4)c(F)c3)n(C[C@H]3CCCO3)c2c1 [Example 52, (R)-2-(4-(6-(4-chloro-2-fluorobenzyloxy)pyridin-2-yl)-3-fluorobenzyl)-1-((tetrahydrofuran-2-yl)methyl)-1H-benzo[d]imidazole-6-carboxylic acid]	24.2
74	O=C(O)c1ccc2nc(Cc3ccc(-c4cccc(OCc5ccc(F)c(F)c5)n4)cc3F)n(CC3CCCO3)c2c1 (centres unmarked) [Example 85, 2-(4-(6-(3,4-difluorobenzyloxy)pyridin-2-yl)-2-fluorobenzyl)-1-((tetrahydrofuran-2-yl)methyl)-1H-benzo[d]imidazole-6-carboxylic acid]	-12.9
61	O=C(O)c1ccc2nc(Cc3ccc(-c4cccc(OCc5ccc(F)c(F)c5)n4)c(F)c3)n(CC3CCCO3)c2c1 (centres unmarked) [Example 98, 2-(4-(6-(3,4-difluorobenzyloxy)pyridin-2-yl)-3-fluorobenzyl)-1-((tetrahydrofuran-2-yl)methyl)-1H-benzo[d]imidazole-6-carboxylic acid]	-2.76
46	O=C(O)c1ccc2nc(Cn3ccc(-c4cccc(OCc5ccc(Cl)cc5F)n4)cc3=O)n(CC3CCCO3)c2c1 (centres unmarked) [Example 105, 2-((4-(6-(4-chloro-2-fluorobenzyloxy)pyridin-2-yl)-2-oxopyridin-1(2H)-yl)methyl)-1-((tetrahydrofuran-2-yl)methyl)-1H-benzo[d]imidazole-6-carboxylic acid]	25.1
20	N#Cc1ccc(COc2cccc(-c3ccn(Cc4nc5ccc(C(=O)O)cc5n4C[C@@H]4CCO4)c(=O)c3)n2)c(F)c1 [Example 111, (S)-2-((4-(6-(4-cyano-2-fluorobenzyloxy)pyridin-2-yl)-2-oxopyridin-1(2H)-yl)methyl)-1-(oxetan-2-ylmethyl)-1H-benzo[d]imidazole-6-carboxylic acid]	1.32
16	O=C(O)c1ccc2nc(Cc3ccc(-c4cccc(OCc5ccc([N+](=O)[O-])cc5)n4)cc3F)n(CC3CCCO3)c2c1 (centres unmarked) [Example 88, 2-(2-fluoro-4-(6-(4-nitrobenzyloxy)pyridin-2-yl)benzyl)-1-((tetrahydrofuran-2-yl)methyl)-1H-benzo[d]imidazole-6-carboxylic acid]	22.1
4.3	O=C(O)c1ccc2nc(Cc3ccc(-c4cccc(OCc5ccc([N+](=O)[O-])cc5)n4)c(F)c3)n(C[C@@H]3CCO3)c2c1 [Example 124, (S)-2-(3-fluoro-4-(6-((4-nitrobenzyl)oxy)pyridin-2-yl)benzyl)-1-(oxetan-2-ylmethyl)-1H-benzo[d]imidazole-6-carboxylic acid]	7.28
